These are literature values, as cited in US20220241167A1, “PRODUCT FOR TREATING KERATINOUS FIBERS, CONTAINING SILANES OF SPECIFIC FORMULAE” (Henkel AG & Co. KGaA, priority 2019, published 2022).

For the series the following is noted: for solubility in water: 25° C.

Consider `O=S(=O)([O-])c1ccc(N=Nc2c(O)ccc3ccccc23)cc1.[Na+]` [Acid Orange 7, sodium salt of 4-[(2-hydroxy-1-naphthyl)azo]benzene sulphonate], for which the solubility in water entry is “more than 7 g/L”.
`Nc1cc(S(=O)(=O)[O-])cc2cc(S(=O)(=O)[O-])c(N=Nc3ccccc3)c(O)c12.[Na+].[Na+]` [Acid Red 33, diantrium salt of 5-amino-4-hydroxy-3-(phenylazo)-naphthalene-2,7-disulphonate]: the solubility in water entry is recorded as “about 2.5 g/L”.
In the case of `O=C([O-])C1=NN(c2ccc(S(=O)(=O)[O-])cc2)C(=O)C1N=Nc1ccc(S(=O)(=O)[O-])cc1.[Na+].[Na+].[Na+]` (stereo not drawn) [Acid Yellow 23, trisodium salt of 4,5-dihydro-5-oxo-1-(4-sulfophenyl)-4-((4-sulfophenyl)azo)-1H-pyrazole-3-carboxylic acid], the “solubility in water (in words)” value (at 25° C.) is “highly soluble in water”.
